From paper PMC12126180 (Journal of chemical information and modeling, 2021)

What was measured:
SARS-CoV-2 WA1 strain = format: cell-based; settings: Vero E6 cells
COVID-19 = settings: 1063 patients, cited from earlier work

Compound | activity against SARS-CoV-2 replication in words (SARS-CoV-2 WA1 strain) | mortality rate (COVID-19; placebo 11.9%) | recovery time shortened with respect to the placebo (COVID-19)
CC(C)(O)c1ccccc1CC[C@@H](SCC1(CC(=O)O)CC1)c1cccc(/C=C/c2ccc3ccc(Cl)cc3n2)c1 [Montelukast] | weakly active |  | 
CCC(CC)COC(=O)[C@H](C)N[P@](=O)(OC[C@H]1O[C@@](C#N)(c2ccc3c(N)ncnn23)[C@H](O)[C@@H]1O)Oc1ccccc1 [Remdesivir] |  | 7.1% | four
